# Laboratory results as given in US20110009351A1, “SCREENING ASSAY TO IDENTIFY CORRECTORS OF PROTEIN TRAFFICKING DEFECTS” (Traffick Therepeutics Inc., priority 2007, published 2011).
# “Also recorded” adds a separate entry of the source. Structures can show the parent of a compound that is named as a salt.
# Columns and labels:
# Type in all cases: cell-based
# F508del CFTR = target: T1, F508del CFTR (Homo sapiens, UniProt P13569, DEL508-508); experiment: YFP fluorescence quenching functional assay (iodide influx), HEK293 cells with F508del CFTR and halide sensitive YFP; conditions: 10 μM, 24 h
# T1 construct: expressed in transfected cells; host or cells: HEK293 Griptite cells stably expressing F508del CFTR, transiently transfected with halide-sensitive eYFP
# How it was run: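 HEK293 Griptite cells stably expressing F508del CFTR, transiently transfected with halide-sensitive eYFP, treated 24 h with 10 μM compound in triplicate, then stimulated 20 min with 25 μM forskolin, 45 μM IBMX and 50 μM genistein. YFP quench after 50 mM iodide imaged 15 times over 40 s on 150-300 cells/well.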
# ΔF508-CFTR [1] = target: T2, ΔF508-CFTR (Homo sapiens, UniProt P13569, DEL508-508); parameters: which was then ligated into full length pNUT-CFTR linearized using Hpa1 and Pml1; expressed in transfected cells
# How it was run: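 BHK cells stably expressing 3HA-tagged ΔF508-CFTR (tags in fourth extracellular loop) treated with compound at 20 μM final for 24 h at 37° C. Surface ΔF508-CFTR measured on fixed, non-permeabilised cells by anti-HA/FITC immunofluorescence (488/510 nm), relative to untreated-well background; hits retested in duplicate, intrinsically fluorescent compounds excluded.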
# ΔF508-CFTR [2] = target: T2, ΔF508-CFTR; experiment: immunoblot and densitometry of mature band C, BHK cells expressing ΔF508-CFTR; parameters: which was then ligated into full length pNUT-CFTR linearized using Hpa1 and Pml1; expressed in transfected cells; conditions: 10 μM, 24 h
# Experimental: Cell lysates were quantitated by Bradford assay (BioRad) and separated by SDS-PAGE (6% polyacrylamide gels) and analyzed by Western blotting. Western blots were blocked using 5% skimmed milk in PBS, then probed overnight at 4° C. with a primary anti-CFTR antibody at a dilution of 1:1000 monoclonal mouse antibody (clone M3A7, Chemicon). The blots were washed four times in PBS before the addition of the secondary HRP-conjugated anti-mouse antibody, at a dilution of 1:5000 (Amersham) for one hour at room temperature. The blots were washed five times in PBS and probed for chemiluminescence (Pierce). All samples were run with equal protein loading as determined using the Bradford assay (Biorad). Densitometry of the immunoblots was performed using the ImageJ program (National Institutes of Health).
# Total protein was quantified in cell lysates using the Bradford assay (BioRad, Hercules, Calif.), separated using SDS-PAGE (6% polyacrylamide gels), and analyzed by Western blotting as described previously (Robert et al., 2007). Western blots were blocked with 5% skimmed milk in PBS and probed overnight at 4° C. with a monoclonal primary anti-CFTR antibody (clone M3A7, Chemicon, Temecula, Calif.) diluted 1:1000. The blots were washed four times in PBS before adding the secondary HRP-conjugated anti-mouse antibody at a dilution of 1:5000 (Amersham, Piscataway, N.J.) for one hour at room temperature, then washed again five times in PBS and visualized using chemiluminescence (Pierce, Rockford, Ill.). The relative intensity of each CFTR glycoform (band B or band C) was estimated by densitometry using the ImageJ software and reported as a percentage of the total CFTR in the same lane (i.e. B+C).
# T2 sequence (P13569 with tags, fused parts or gaps DEL508-508): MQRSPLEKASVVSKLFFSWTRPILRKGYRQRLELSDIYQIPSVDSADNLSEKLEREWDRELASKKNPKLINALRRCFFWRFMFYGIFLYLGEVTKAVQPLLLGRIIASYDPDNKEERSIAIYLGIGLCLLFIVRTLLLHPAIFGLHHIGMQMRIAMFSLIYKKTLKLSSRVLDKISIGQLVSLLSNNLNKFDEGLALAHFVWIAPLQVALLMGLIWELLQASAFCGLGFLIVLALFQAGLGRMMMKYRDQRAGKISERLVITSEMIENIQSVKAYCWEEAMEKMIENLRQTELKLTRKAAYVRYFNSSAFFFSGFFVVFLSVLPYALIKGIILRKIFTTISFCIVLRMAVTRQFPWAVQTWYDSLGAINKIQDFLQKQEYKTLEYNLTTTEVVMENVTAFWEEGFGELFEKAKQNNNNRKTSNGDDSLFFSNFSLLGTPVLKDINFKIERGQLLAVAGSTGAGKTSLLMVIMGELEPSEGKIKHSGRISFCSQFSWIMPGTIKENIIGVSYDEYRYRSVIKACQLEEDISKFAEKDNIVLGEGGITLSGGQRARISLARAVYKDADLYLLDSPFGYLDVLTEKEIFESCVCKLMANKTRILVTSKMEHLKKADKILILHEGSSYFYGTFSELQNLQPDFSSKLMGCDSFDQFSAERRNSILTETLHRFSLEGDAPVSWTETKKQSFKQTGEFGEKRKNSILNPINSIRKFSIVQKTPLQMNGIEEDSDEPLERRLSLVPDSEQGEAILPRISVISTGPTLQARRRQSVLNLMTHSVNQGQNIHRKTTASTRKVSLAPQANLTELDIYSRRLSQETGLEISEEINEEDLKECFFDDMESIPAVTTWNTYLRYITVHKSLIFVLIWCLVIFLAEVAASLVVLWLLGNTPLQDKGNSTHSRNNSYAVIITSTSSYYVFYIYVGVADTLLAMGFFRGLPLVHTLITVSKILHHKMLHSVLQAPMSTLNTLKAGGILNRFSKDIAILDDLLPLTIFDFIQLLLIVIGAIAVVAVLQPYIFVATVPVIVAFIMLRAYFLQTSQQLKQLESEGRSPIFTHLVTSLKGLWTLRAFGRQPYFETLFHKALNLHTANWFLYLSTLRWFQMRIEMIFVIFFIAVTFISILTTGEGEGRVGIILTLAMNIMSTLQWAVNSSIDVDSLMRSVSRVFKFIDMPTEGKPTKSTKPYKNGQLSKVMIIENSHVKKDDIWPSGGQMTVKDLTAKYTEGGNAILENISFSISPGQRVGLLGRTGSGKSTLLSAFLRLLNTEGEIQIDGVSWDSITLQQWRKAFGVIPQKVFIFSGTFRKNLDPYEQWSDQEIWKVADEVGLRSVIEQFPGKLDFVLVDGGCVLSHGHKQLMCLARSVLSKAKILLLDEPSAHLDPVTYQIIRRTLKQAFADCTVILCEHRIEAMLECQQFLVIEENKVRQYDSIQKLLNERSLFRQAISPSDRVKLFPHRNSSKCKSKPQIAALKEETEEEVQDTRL
# T1 sequence (P13569 with tags, fused parts or gaps DEL508-508): as above
compound,measurement,setting,value
"O=C(OCC(O)CO)c1ccccc1Nc1ccnc2cc(Cl)ccc12 (stereo not shown) [Glafenine hydrochloride, 2-[(7-chloro-4-quinolinyl)amino]benzoic acid 2,3-dihydroxypropyl ester]",functional correction in YFP quenching assay,F508del CFTR,test positive in each case; also recorded: enhanced the cAMP-stimulated iodide influx
same,remaining activity at 10 µM,"F508del CFTR; HEK293, nc = 100% pc = 69.2, read-out: % YFP quench",80%
same,"ΔF508-CFTR surface expression increase, normalized to BHK cells expressing wild-type CFTR","ΔF508-CFTR [1]; 10 μM, 24 h, compared with vehicle alone",40%
same,hit in screen (class letter),"ΔF508-CFTR [1]; Prestwick library, initial corrector assay, BHK cells","W (Medium and weak hits were defined as compounds giving a cell fluorescence signal that was between 2 and 3 or 1 and 2 standard deviations, respectively, above untreated control wells)"
same,hit in screen (score),"ΔF508-CFTR [1]; Prestwick library, initial corrector assay, standard deviations above untreated controls",1.3
same,band C glycoform as share of the CFTR signal (band B+band C),ΔF508-CFTR [2],approximately 38%
same,increase of band C glycoform compared to untreated control,ΔF508-CFTR [2],28.4%
